From patent US9301945B2, “Methods for treating inflammatory conditions and states, and cancers by antagonizing NF-κB activation” (Emory University, priority 2011, dated 2016)
“Also recorded” adds a separate entry of the source.

Legend:
[1] = tested on: RAW264.7 osteoclast precursors; test: Osteoclastogenesis assay with TRAP staining; format: cell-based, mouse; settings: RANKL 30 ng/ml, 7 days
Method: (§1) The mouse preosteoblastic cell line MC3T3-E1, clone 14 (MC3T3) and the mouse monocytic cell line RAW264.7 were purchased from the Amerimay Type Culture Collection (Manassas, Va.) and cultured as described in, for example, Li et al. (2007) J Bone Miner Res 22(5): 646-655; and Yamaguchi et al. (2009) Int J Mol Med 24(5): 671-675.
RAW264.7 cells were cultured in 96-well plates in α-MEM supplemented with 10% FBS and 100 IU/ml penicillin, and 100 μg/ml streptomycin at a density of 1×10^4 cells/well. Cells were cultured for 6 days with RANKL ([…]) pre-incubated for 10 minutes with crosslinking anti-poly-histidine antibody (2.5 μg/ml), to induce osteoclast formation. Strontium ranelate, sodium ranelate or strontium chloride were added at the indicated doses. After 6 days of culture, the cells were fixed and stained for TRAP, a specific maker of the osteoclast phenotype, using a leukocyte acid phosphatase kit. TRAP+ cells with three or more nuclei were defined as osteoclasts and were quantitated under light microscopy, and normalized for cell size based on number of nuclei. Five wells per group were averaged. Representative wells were photographed under bright field microscopy using a Nikon Eclipse TE2000-S inverted microscope equipped with a digital camera (QImaging Corp., Burnaby, BC, Mayada).
To establish an in vitro osteoclastogenesis model suitable for investigation of strontium ranelate activity, the monocytic cell line RAW 264.7 was employed and differentiated into osteoclasts by addition of the key osteoclastogenic cytokine RANKL was induced. The effect of strontium ranelate on osteoclast differentiation was tested over a dose range from 1 μM to 200 μM and cultures were stained with TRAP 7 days later and osteoclast formation quantitated.

[2] = tested on: TGFβ-induced Smad activation in MC3T3 cells; test: Smad luciferase reporter assay in MC3T3 cells (TGFβ with or without TNFα); format: cell-based, mouse; settings: 24 h; for direct effect on basal Smad activity: 500 μM; for effect on TNFα suppression of TGFβ-induced Smad activity: TGFβ 1 ng/ml, TNFα 1 ng/ml, concentrations of 100 μM and above
Text: (§2) The NF-κB responsive reporter pNF-κB-Luc (BD Biosciences) and the Smad responsive reporter pGL3-Smad were used as previously described by in, for example, Li et al. (2007) J Bone Miner Res 22(5): 646-65. Briefly, reporter plasmids were transfected into MC3T3 or RAW264.7 cells (1×10^5 cells/well) using Lipofectamine 2000 reagent (Invitrogen) in α-MEM without FBS and antibiotics. Five hours later the medium was changed to α-MEM containing 10% FBS plus antibiotics and MC3T3 cells treated with TNFα (1 or 10 ng/ml as indicated) or RAW264.7 cells treated with RANKL (30 ng/ml) to stimulate NF-κB activity. In some experiments, Smad activity was induced in MC3T3 cells using TGFβ (1 ng/ml). Strontium ranelate, sodium ranelate or strontium chloride were added at the indicated doses. Cells were extracted with passive lysis buffer (Promega Corporation, Madison Wis.) 24 hours later, and luciferase activity was measured using the Luciferase Assay System of Promega, on a microplate luminometer (Turner Designs, Sunnyvale, Calif., USA).
TGFβ is a potent early osteoblast precursor commitment and recruitment factor. See, e.g., See Janssens et al. (2005) Endocr Rev 26(6): 743-774; and Tang et al. (2009) Nat Med 15(7): 757-765. It has been reported that TNFα antagonizes TGFβ-induced Smad signaling in osteoblast precursors (see, e.g., Li et al. (2007) J Bone Miner Res 22(5): 646-655) and consequently investigated whether strontium ranelate may alleviate TNFα-induced suppression of TGFβ-induced Smad signaling in preosteoblasts. MC3T3 cells were transiently transfected with a Smad responsive luciferase reporter and Smad-induced transcription quantitated following stimulation by TGFβ.

[3] = tested on: MC3T3 osteoblast precursors; test: Osteoblast differentiation / mineralization assay with Alizarin Red-S staining; format: cell-based, mouse; settings: for osteoblast mineralization (calcium deposition, Alizarin Red-S): 200 μM, 17 days of culture, mineralizing medium, no TNFα
Method: as §1
For mineralization assays MC3T3 cells were plated in 12-well dishes at a density of 1.0×10^5 cells per well in mineralization medium (α-MEM supplemented with 10% FBS, L-ascorbic acid (100 μg/ml) and 4 mM β-glycerophosphate) as previously described in, for example, Li et al. (2007) J Bone Miner Res 22(5): 646-655; and Sugimoto et al. (2000) Int J Mol Med 5(5): 515-520. Strontium ranelate, sodium ranelate or strontium chloride were added at the indicated doses and cells replenished with fresh medium every 3 days. At 17-18 days of culture, cells were rinsed with PBS and calcium deposition was visualized by fixing the cells in 75% ethanol for 30 minutes at 4° C. followed by staining with Alizarin Red-S (40 mM, pH 6.2) for 30 minutes at room temperature. Excess stain was removed by copious washing with distilled water. Plates were imaged using a flatbed smayner (Epson Perfection 1660 Photo).
The mechanism by which strontium ranelate promotes osteoblast differentiation was investigated using an in vitro model. The in-vitro model used to investigate utilizes the MC3T3 mouse pre-osteoblast cell line that differentiates spontaneously into active osteoblasts within 21 days of culture in medium containing ascorbic acid and β-glycerophosphate (mineralizing medium).

[4] = tested on: TNFα-induced NF-κB activation in MC3T3 osteoblast precursors; test: NF-κB luciferase reporter assay in MC3T3 cells stimulated with TNFα; format: cell-based, mouse; settings: 24 h
Text: as §2
A major mechanism by which TNFα mediates its suppressive action on osteoblasts is through NF-κB activation. See Li et al. (2007) J Bone Miner Res 22(5): 646-655; and Nanes (2003) Gene 321: 1-15.

[5] = tested on: RANKL-induced NF-κB activation in RAW264.7 osteoclast precursors; test: NF-κB luciferase reporter assay in RAW264.7 cells stimulated with RANKL; format: cell-based, mouse; settings: RANKL 30 ng/ml, dose range 1 to 1000 μM, 24 h
Text: as §2
See Caudrillier et al. (2010) Mol Pharmacol 78(4):569-576.

[6] = tested on: NF-κB nuclear translocation; settings: reported by Caudrillier et al. (2010); cited from earlier work
postmenopausal women = settings: clinical trials; cited from earlier work
[7] = in vitro osteoblast differentiation and mineralization assays

Compound | RANKL-induced osteoclast formation (TRAP+ multinucleated cells) ([1]; 10 or 100 μM) | direct effect on basal Smad activity [2] | effect on TNFα suppression of TGFβ-induced Smad activity [2] | osteoblast mineralization (calcium deposition, Alizarin Red-S) [3] | TNFα-induced NF-κB activity (luciferase) ([4]; TNFα 1 ng/ml, 200 μM) | RANKL-induced NF-κB activity (luciferase) [5] | RANKL-induced osteoclast formation (TRAP+ multinucleated cells) ([1]; 1 μM) | RANKL-induced NF-κB nuclear translocation [6] | bone loss (postmenopausal women) | fracture risk (postmenopausal women) | effect on TNFα suppression of basal mineralization ([3]; TNFα 5 ng/ml, 10 μM) | mineralization relative to basal levels in presence of TNFα ([3]; TNFα 5 ng/ml, 100 and 200 μM) | lowest dose achieving significant biological activities [3, 7] [μM] | saturating dose [3, 7] [µM] | TNFα-induced NF-κB activity (luciferase) ([4]; high TNFα 10 ng/ml, dose range 1 to 1000 μM) | TNFα-induced NF-κB activity (luciferase) ([4]; low TNFα 1 ng/ml, dose range 1 to 1000 μM) | RANKL-induced NF-κB activity (luciferase) ([5]; listed as Strontium ranelate)
N#Cc1c(N(CC(=O)[O-])CC(=O)[O-])sc(C(=O)[O-])c1CC(=O)[O-].[Na+].[Na+].[Na+].[Na+] [sodium ranelate] | neither strontium chloride nor sodium ranelate had any effect on osteoclast formation | no direct effect on basal Smad activity | significantly relieved the suppressive effect of TNFα on TGFβ-induced Smad activity | no stimulatory effects on osteoblast mineralization | completely ineffective | – | – | – | – | – | – | – | – | – | – | – | –
[Cl-].[Cl-].[Sr+2] [strontium chloride] | neither strontium chloride nor sodium ranelate had any effect on osteoclast formation | – | – | no stimulatory effects on osteoblast mineralization | completely ineffective | no significant effect; also recorded: failed to suppress NF-κB activity | – | – | – | – | – | – | – | – | – | – | –
N#Cc1c(N(CC(=O)[O-])CC(=O)[O-])sc(C(=O)[O-])c1CC(=O)[O-].[Sr+2].[Sr+2] [strontium ranelate, distrontium salt of 2-[N,N-di(carboxymethyl)amino]-3-cyano-4-carboxymethylthiophene-5-carboxylic acid] | potently suppresses osteoclast formation at both doses | no direct effects on Smad activity | significantly alleviates the suppressive effect of TNFα on TGFβ-induced Smad activation | promote a robust osteoblast mineralization; also recorded: robust enhancement in mineralization | significantly suppressed TNFα-induced NF-κB activity | potently antagonize RANKL-induced NF-κB activation | significantly suppressed | antagonize RANKL-induced NF-κB nuclear translocation | protect against bone loss | reduce fracture risk | completely reversed the suppressive effect of TNFα on basal mineralization | potently augmented mineralization over basal levels | 1 | 100 | dose dependently suppressed TNFα-induced NF-κB activity | dose dependently suppressed TNFα-induced NF-κB activity | dose-dependently and significantly blunted RANKL-induced NF-κB activity
